Laboratory results: US10995150B2, “Methods for inhibiting atherosclerosis by administering an anti-PCSK9 antibody” (REGENERON PHARMACEUTICALS, INC., priority 2013, dated 2021)

Key:
APOE*3Leiden.CETP mice [1] = experiment: Plasma total cholesterol, triglycerides and lipoprotein profiles; type: in vivo, mouse; conditions: for TC reductions in lipoprotein profile (FPLC): lipoprotein separation by FPLC, FIG. 1C/1D; for average plasma TC, change compared to control: alone or + atorvastatin 3.6 mg/kg/d in diet
Excerpt: Ninety female APOE*3Leiden.CETP transgenic mice (9 to 13 weeks of age), expressing human CETP under control of its natural flanking regions, were used. During the study, mice were housed under standard conditions with a 12-hour light-dark cycle and had free access to food and water. Animal experiments were approved by the Institutional Animal Care and Use Committee of The Netherlands Organization for Applied Research.
Plasma was isolated from blood collected in ethylenediaminetetraacetic acid (EDTA)-coated cups via tail vein bleeding after a 4-hour fast every 2 to 4 weeks. Plasma TC and TG were determined using enzymatic kits according to the manufacturer's protocols (cat. no. 1458216 and cat. no. 1488872, respectively; Roche/Hitachi) and average plasma TC and TG levels were calculated. Lipoprotein profiles for TC were measured after lipoprotein separation by fast protein liquid chromatography (FPLC) after 4, 12, and 18 weeks of treatment. MAb316P levels were measured by a human Fc enzyme-linked immunosorbent assay.

APOE*3Leiden.CETP mice [2] = experiment: Histological assessment of atherosclerosis in the aortic root; type: in vivo, mouse; conditions: 18 weeks; for lesion severity (severe type IV-V lesions) compared with the control / lesion-free sections / undiseased segments compared with the control: dose of mAb316P not specified
Excerpt: (§1) Hearts were isolated, fixed in formalin, and embedded in paraffin. Cross-sections (5 μm each) of the entire aortic root area were stained with hematoxylin-phloxin-saffron. For each mouse, four sections at intervals of 50 μm were used for quantitative and qualitative assessment of the atherosclerotic lesions. To determine atherosclerotic lesion size and severity, the lesions were classified into five categories according to the American Heart Association classification: I) early fatty streak, II) regular fatty streak, III) mild plaque, IV) moderate plaque, and V) severe plaque. Total lesion area and number of lesions per cross-section, as well as the percentage undiseased segments, were calculated. To assess lesion severity as a percentage of all lesions, type I-Ill lesions were classified as mild lesions, and type IV-V lesions were classified as severe lesions. To determine the total plaque load in the thoracic aorta, perfusion-fixed aortas (from the aortic origin to the diaphragm) were cleaned of extravascular fat, opened longitudinally, pinned en face, and stained for lipids with oil-red O as described previously by Verschuren et al. (Arterioscler Thromb Vasc Biol. 2005; 25:161-167). Data were normalized for analyzed surface area and expressed as percentage of the stained area. Photos/images were taken with the Olympus BX51 microscope and lesion areas were measured using Cell D imaging software (Olympus Soft Imaging Solutions).

APOE*3Leiden.CETP mice [3] = experiment: Flow cytometric analysis of white blood cells (PBMC); type: in vivo, mouse
Excerpt: After 8 weeks of treatment, peripheral blood mononuclear cells (PBMCs) were isolated from fresh blood samples and were sorted into GR-1+ (neutrophils/granulocytes), GR-1− (lymphocytes/monocytes), CD3+ (T-cells), CD19+ (B-cells) and CD11b+/Ly6C^low and CD11b+/Ly6C^hi (monocytes) cells using flow cytometric (FACS) analysis. The following conjugated monoclonal antibodies were used from Becton Dickinson: GR-1 FITC, CD3 PerCpCy5-5, CD19 V450, CD11b APC and Ly6C PE-Cy7.

APOE*3Leiden.CETP mice [4] = experiment: Liver weight and hepatic lipid analysis; conditions: atorvastatin 3.6 mg/kg/d alone; 18 weeks
Excerpt: Mice received a semi-synthetic cholesterol-rich diet, containing 15% (w/w) cacao butter and 0.15% cholesterol (Western-type diet [WTD]; Hope Farms, Woerden, The Netherlands) for a run-in period of 3 weeks to increase plasma total cholesterol (TC) levels up to ˜15 mmol/L. Body weight (BW) and food intake were monitored regularly during the study. […] At the end of the treatment period, all animals were sacrificed by CO2 inhalation. Livers and hearts were isolated to assess hepatic LDLR protein levels, lipid content, atherosclerosis development, and plaque composition.
Liver tissue samples were homogenized in phosphate-buffered saline, and the protein content was measured. Lipids were extracted, separated by high-performance thin-layer chromatography on silica gel plates, and analyzed with TINA2.09 software (Raytest Isotopen Messgerate Straubenhardt, Germany), as previously described by Post et al. (Hepatology. 1999; 30:491-500).

hepatic LDLR protein = experiment: Hepatic LDLR protein levels (Western blot); type: in vivo, mouse; conditions: alone or + atorvastatin 3.6 mg/kg/d, 18 weeks
Experimental: Liver tissues were homogenized in lysis buffer (50 mM Tris-HCL [pH=7.4], 150 mM NaCl, 0.25% deoxycholic acid, 1% NP-40 [Igepal], 1 mM EDTA, protease inhibitor cocktail [complete, Roche], 1 mM PMSF, 1 mM Na3VO4) and then centrifuged at 6500 rpm at 4° C. for 30 minutes. Protein concentration in cell lysates was determined by bicinchonic acid protein assay (Thermo Scientific) according to manufacturer's instructions. 50 μg of protein lysates was separated by SDS-PAGE and then transferred to polyvinylidene fluoride membranes (Millipore). Blots were subjected to goat anti-mouse LDLR from R&D Systems and rabbit anti-goat horseradish peroxidase (HRP) from AbD Serotec or mouse anti-α-Tubulin from Sigma and horse anti-mouse HRP from Cell Signaling Technologies (according to the manufacturer's instructions); blots were developed with West Femto Super Signal ECL (Thermo Scientific) and subjected to the Chemi-Doc-it imaging system. Intensities of protein bands were quantified using Image J software.

APOE*3Leiden.CETP mice [5] = experiment: Total plaque load in the aortic arch (oil-red O); type: in vivo, mouse; conditions: mAb316P 10 mg/kg, alone or + atorvastatin 3.6 mg/kg/d; 18 weeks
Excerpt: as §1, with “To determine the total plaque load in the thoracic aorta, perfusion-fixed aortas (from the aortic origin to the diaphragm) were cleaned of extravascular fat, opened longitudinally, pinned en face, and stained for lipids with oil-red O as described previously by Verschuren et al. (Arterioscler Thromb Vasc Biol. 2005; 25:161-167).” left out

[6] = 10 mg/kg MAb316P and/or atorvastatin, after 8 weeks of treatment, mean ± SD
[7] = mAb316P 3 mg/kg weekly s.c., 18 weeks
[8] = mAb316P 10 mg/kg weekly s.c., 18 weeks
[9] = mAb316P 3 mg/kg weekly s.c., alone or + atorvastatin 3.6 mg/kg/d
[10] = mAb316P 10 mg/kg weekly s.c., alone or + atorvastatin 3.6 mg/kg/d
[11] = mAb316P 10 mg/kg, alone or + atorvastatin, 8 weeks

CC(C)c1c(C(=O)Nc2ccccc2)c(-c2ccccc2)c(-c2ccc(F)cc2)n1CC[C@@H](O)C[C@@H](O)CC(=O)O [atorvastatin, reference compound]
TC reductions in lipoprotein profile (FPLC) (APOE*3Leiden.CETP mice [1]): confined to apoB-containing lipoproteins | lesion severity (severe type IV-V lesions) compared with the control (APOE*3Leiden.CETP mice [2]): reduced severity to a lesser extent | lesion-free sections / undiseased segments compared with the control (APOE*3Leiden.CETP mice [2]): no effect | atherosclerotic lesion size (aortic root), change compared to the control (APOE*3Leiden.CETP mice [2]; atorvastatin 3.6 mg/kg/d alone): −35% | effect on the number of lesions (APOE*3Leiden.CETP mice [2]; atorvastatin 3.6 mg/kg/d alone): no effect | B-cells (APOE*3Leiden.CETP mice [3]; [6]): 69.5 ± 17.4 % of PBMC population | CD11b+ Ly6C^hi (APOE*3Leiden.CETP mice [3]; [6]): 51.2 ± 6.4 % of monocytes | CD11b+ Ly6C^low (APOE*3Leiden.CETP mice [3]; [6]): 47.8 ± 6.3 % of monocytes | Lymphocytes/Monocytes (APOE*3Leiden.CETP mice [3]; [6]): 94.9 ± 1.6 % of PBMC population | Monocytes (APOE*3Leiden.CETP mice [3]; [6]): 5.3 ± 2.4 % of PBMC population | Neutrophils/Granulocytes (APOE*3Leiden.CETP mice [3]; [6]): 5.1 ± 1.6 % of PBMC population | T-cells (APOE*3Leiden.CETP mice [3]; [6]): 17.0 ± 4.8 % of PBMC population | liver weight, change compared to the control group (APOE*3Leiden.CETP mice [4]): −15%

mAb316P: human anti-PCSK9 antibody; HCVR SEQ ID NO:1, LCVR SEQ ID NO:6
TC, 3 mg mAb316P versus 10 mg mAb316P (dose dependence) (APOE*3Leiden.CETP mice [1]; alone, or both with atorvastatin 3.6 mg/kg/d, 18 weeks): −14% | TC reductions in lipoprotein profile (FPLC) (APOE*3Leiden.CETP mice [1]): confined to apoB-containing lipoproteins | average plasma TC, change compared to control (APOE*3Leiden.CETP mice [1]; [7]): −37% | average plasma TG, change compared to control (APOE*3Leiden.CETP mice [1]; [7]): −33% | average plasma TC, change compared to control (APOE*3Leiden.CETP mice [1]; [8]): −46% | average plasma TG, change compared to control (APOE*3Leiden.CETP mice [1]; [8]): −39% | Hepatic LDLR protein levels, change vs control (hepatic LDLR protein; mAb316P 3 mg/kg weekly s.c.): +80% | Hepatic LDLR protein levels, change vs control (hepatic LDLR protein; mAb316P 10 mg/kg weekly s.c.): +133% | lesion severity (severe type IV-V lesions) compared with the control (APOE*3Leiden.CETP mice [2]): fewer severe (type IV-V) lesions | lesion-free sections / undiseased segments compared with the control (APOE*3Leiden.CETP mice [2]): more lesion-free sections | atherosclerotic lesion size (aortic root), change compared to the control (APOE*3Leiden.CETP mice [2]; [9]): −71% | number of lesions per cross-section, change compared to the control (APOE*3Leiden.CETP mice [2]; [9]): −17% | atherosclerotic lesion size (aortic root), change compared to the control (APOE*3Leiden.CETP mice [2]; [10]): −88% | number of lesions per cross-section, change compared to the control (APOE*3Leiden.CETP mice [2]; [10]): −30% | total plaque area in the aortic arch, change vs control (APOE*3Leiden.CETP mice [5]): −67% | B-cells (APOE*3Leiden.CETP mice [3]; [6]): 66.3 ± 15.0 % of PBMC population | CD11b+ Ly6C^hi (APOE*3Leiden.CETP mice [3]; [6]): 57.5 ± 8.4 % of monocytes | CD11b+ Ly6C^low (APOE*3Leiden.CETP mice [3]; [6]): 40.0 ± 8.0 % of monocytes | Lymphocytes/Monocytes (APOE*3Leiden.CETP mice [3]; [6]): 92.9 ± 2.0 % of PBMC population | Monocytes (APOE*3Leiden.CETP mice [3]; [6]): 8.9 ± 2.5 % of PBMC population | Neutrophils/Granulocytes (APOE*3Leiden.CETP mice [3]; [6]): 7.1 ± 2.0 % of PBMC population | anti-inflammatory Ly6C^low monocytes, change vs control (APOE*3Leiden.CETP mice [3]; [11]): +12% | granulocytes/neutrophils (as % of PBMC population), change vs control (APOE*3Leiden.CETP mice [3]; [11]): −20% | monocytes (as % of PBMC population), change vs control (APOE*3Leiden.CETP mice [3]; [11]): −28% | pro-inflammatory Ly6C^hi monocytes, change vs control (APOE*3Leiden.CETP mice [3]; [11]): −8%
